Results on 21 compounds are retold here after PubChem BioAssay AID256 (DTP/NCI, 2004).

The structures appear in SMILES notation. Where “and” joins values, the source holds several entries; their conditions need not be identical. Equal values may be shown once. Inconclusive results and toxic doses are left out.

For the test, the system named is CD2F1 mice, L1210 leukemia ip, survival T/C. Description: NCI In Vivo Anticancer Drug Screen. Data for tumor model L1210 Leukemia (intraperitoneal) in CD2F1 (CDF1) mice. The note with it: higher = longer survival. A digest of the protocol:
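Antitumor effect is scored in animals hosting a serially transplanted tumor. Values compare compound-dosed animals against vehicle-only controls as a simple quotient.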

Where [1] appears, read: endpoint: mean survival time, dose: 100.0 mg/kg/injection, schedule: Q04DX003 (ip), vehicle: saline with Tween-80.
Setting [2] is: endpoint: mean survival time, dose: 200.0 mg/kg/injection, schedule: Q04DX003 (ip), vehicle: saline with Tween-80.
[3] abbreviates: endpoint: mean survival time, dose: 400.0 mg/kg/injection, schedule: Q04DX003 (ip), vehicle: saline with Tween-80.
Where [4] appears, read: endpoint: mean survival time, dose: 100.0 mg/kg/injection, schedule: Q01DX009 (ip), vehicle: saline with Tween-80.
[5] abbreviates: endpoint: mean survival time, dose: 200.0 mg/kg/injection, schedule: Q01DX009 (ip), vehicle: saline with Tween-80.
[6] abbreviates: endpoint: mean survival time, dose: 400.0 mg/kg/injection, schedule: Q01DX009 (ip), vehicle: saline with Tween-80.
Setting [7] is: endpoint: mean survival time, dose: 100.0 mg/kg/injection, schedule: Q04DX002 (ip), vehicle: saline with Tween-80.
Setting [8] is: endpoint: mean survival time, dose: 200.0 mg/kg/injection, schedule: Q04DX002 (ip), vehicle: saline with Tween-80.
Where [9] appears, read: endpoint: mean survival time, dose: 400.0 mg/kg/injection, schedule: Q04DX002 (ip), vehicle: saline with Tween-80.

With `CNC(=S)NNc1ccccc1Cl`, the T/C was 98 % of control (endpoint: mean survival time, dose: 12.5 mg/kg/injection, schedule: Q01DX009 (ip), vehicle: other); 94 % of control (endpoint: mean survival time, dose: 25.0 mg/kg/injection, schedule: Q01DX009 (ip), vehicle: other); 88 % of control (endpoint: mean survival time, dose: 50.0 mg/kg/injection, schedule: Q01DX009 (ip), vehicle: other); 104 % of control (endpoint: mean survival time, dose: 100.0 mg/kg/injection, schedule: Q01DX009 (ip), vehicle: other); 104 % of control (endpoint: mean survival time, dose: 200.0 mg/kg/injection, schedule: Q01DX009 (ip), vehicle: other).

For the compound `COC(CN(CC(OC)OC)c1ncnc2nc[nH]c12)OC`, the T/C is 93 % of control (endpoint: mean survival time, dose: 25.0 mg/kg/injection, schedule: Q01DX005 (ip), vehicle: other); 91 % of control (endpoint: mean survival time, dose: 50.0 mg/kg/injection, schedule: Q01DX005 (ip), vehicle: other); 98 % of control (endpoint: mean survival time, dose: 100.0 mg/kg/injection, schedule: Q01DX005 (ip), vehicle: other); 98 % of control (endpoint: mean survival time, dose: 200.0 mg/kg/injection, schedule: Q01DX005 (ip), vehicle: other); 96 % of control (endpoint: mean survival time, dose: 400.0 mg/kg/injection, schedule: Q01DX005 (ip), vehicle: other).

`O=C(/C=C/c1ccc2c(c1)OCO2)c1ccc(Cl)cc1`: the T/C is 94 % of control under setting [1] and 89 % of control under setting [2].

For the compound `CSc1ccc(NC(=O)Nc2nccs2)cc1`, the T/C runs as follows: (endpoint: mean survival time, dose: 100.0 mg/kg/injection, schedule: Q01DX009 (ip), vehicle: saline sonified) 103 % of control; (endpoint: mean survival time, dose: 200.0 mg/kg/injection, schedule: Q01DX009 (ip), vehicle: saline sonified) 106 % of control; (endpoint: mean survival time, dose: 400.0 mg/kg/injection, schedule: Q01DX009 (ip), vehicle: saline sonified) 100 % of control.

In the case of `CCOC(=O)C(C(C)=O)c1cc(NS(=O)(=O)c2ccccc2)ccc1O` (stereo not given), the T/C was 114 % of control under setting [1], 103 % of control under setting [2] and 105 % of control under setting [3].

Take `Nc1ccc(Nc2ccc([N+](=O)[O-])cc2[N+](=O)[O-])cc1`: the T/C reads like this: (endpoint: mean survival time, dose: 100.0 mg/kg/injection, schedule: Q01DX001 (ip), vehicle: saline with Tween-80) 89 % of control; (endpoint: mean survival time, dose: 200.0 mg/kg/injection, schedule: Q01DX001 (ip), vehicle: saline with Tween-80) 96 % of control; (endpoint: mean survival time, dose: 400.0 mg/kg/injection, schedule: Q01DX001 (ip), vehicle: saline with Tween-80) 96 % of control.

`CNC(=O)Nc1ccc(S(N)(=O)=O)cc1`: the T/C was 97 % of control under setting [4], 91 % of control under setting [5] and 100 % of control under setting [6].

On to `N=C(N)c1ccc(Nc2ccc(-c3cc4ccc(C(=N)N)cc4[nH]3)cc2)cc1`, for which the T/C (endpoint: median survival time, dose: 3.75 mg/kg/injection, schedule: Q01DX005 (ip), vehicle: saline) is 326 % of control; the T/C (endpoint: median survival time, dose: 4.5 mg/kg/injection, schedule: Q01DX005 (ip), vehicle: saline) was 168 % of control; the T/C (endpoint: median survival time, dose: 7.5 mg/kg/injection, schedule: Q01DX005 (ip), vehicle: saline) was 182 % of control and 271 % of control; the T/C (endpoint: median survival time, dose: 12.49 mg/kg/injection, schedule: Q01DX005 (ip), vehicle: saline) is 150 % of control; the T/C (endpoint: median survival time, dose: 20.83 mg/kg/injection, schedule: Q01DX005 (ip), vehicle: saline) was 101 % of control.

As to `O=C(O)c1ccc(CC2CCC2)cc1`, the T/C under setting [7] was 96 % of control, the T/C under setting [8] is 96 % of control and the T/C under setting [9] was 89 % of control.

For the compound `COc1cc(Cl)ccc1NC(=O)Oc1ccc(Br)cc1`, the T/C is, setting by setting: (endpoint: mean survival time, dose: 50.0 mg/kg/injection, schedule: Q01DX009 (ip), vehicle: saline with Tween-80) 92 % of control; under setting [4], 96 % of control; under setting [5], 87 % of control.

Consider `CS(C)=O.[Cl-].[Cl-].[NH-]CC(O)C[N-]CC(O)CN.[Pt+4]` (stereo not given), for which the T/C is 97 % of control (endpoint: median survival time, dose: 10.0 mg/kg/injection, schedule: Q04DX003 (ip), vehicle: saline); 111 % of control (endpoint: median survival time, dose: 20.0 mg/kg/injection, schedule: Q04DX003 (ip), vehicle: saline); 108 % of control (endpoint: median survival time, dose: 40.0 mg/kg/injection, schedule: Q04DX003 (ip), vehicle: saline); 94 % of control (endpoint: median survival time, dose: 50.0 mg/kg/injection, schedule: Q04DX003 (ip), vehicle: saline); 98 % of control (endpoint: median survival time, dose: 80.0 mg/kg/injection, schedule: Q04DX003 (ip), vehicle: saline).

Consider `BrC(Br)(Br)c1ccc2ccccc2n1`, for which the T/C was 96 % of control under setting [4], 94 % of control under setting [5] and 102 % of control under setting [6].

Regarding `CCC1OC(OC)C=CC1=O` (stereo not given), the T/C runs as follows: (endpoint: median survival time, dose: 12.5 mg/kg/injection, schedule: Q01DX009 (ip), vehicle: saline) 100 % of control; (endpoint: median survival time, dose: 25.0 mg/kg/injection, schedule: Q01DX009 (ip), vehicle: saline) 102 % of control; (endpoint: median survival time, dose: 50.0 mg/kg/injection, schedule: Q01DX009 (ip), vehicle: saline) 105 % of control; (endpoint: median survival time, dose: 100.0 mg/kg/injection, schedule: Q01DX009 (ip), vehicle: saline) 102 % of control.

For `CCC(=O)c1cc2c(cc1CC)C(C)(C)CCC2(C)C`, the T/C is 93 % of control (endpoint: mean survival time, dose: 50.0 mg/kg/injection, schedule: Q01DX001 (ip), vehicle: saline); 93 % of control (endpoint: mean survival time, dose: 100.0 mg/kg/injection, schedule: Q01DX001 (ip), vehicle: saline); 101 % of control (endpoint: mean survival time, dose: 100.0 mg/kg/injection, schedule: Q04DX003 (ip), vehicle: saline); 93 % of control (endpoint: mean survival time, dose: 200.0 mg/kg/injection, schedule: Q01DX001 (ip), vehicle: saline); 97 % of control (endpoint: mean survival time, dose: 200.0 mg/kg/injection, schedule: Q04DX003 (ip), vehicle: saline); 91 % of control (endpoint: mean survival time, dose: 400.0 mg/kg/injection, schedule: Q01DX001 (ip), vehicle: saline). Moreover, the T/C (endpoint: mean survival time, dose: 400.0 mg/kg/injection, schedule: Q04DX003 (ip), vehicle: saline) was 90 % of control.

As for `Cc1cn2ccccc2c[n+]1=O`, the T/C is 103 % of control (endpoint: mean survival time, dose: 5.0 mg/kg/injection, schedule: Q04DX003 (ip), vehicle: saline with Tween-80); 108 % of control (endpoint: mean survival time, dose: 10.0 mg/kg/injection, schedule: Q04DX003 (ip), vehicle: saline with Tween-80); 97 % of control (endpoint: mean survival time, dose: 20.0 mg/kg/injection, schedule: Q04DX003 (ip), vehicle: saline with Tween-80).

In the case of `COc1cc(OC)c2c[n+](C)c3c4cc(OC)c(OC)cc4ccc3c2c1`, the T/C by setting is: (endpoint: mean survival time, dose: 12.5 mg/kg/injection, schedule: Q01DX009 (ip), vehicle: saline) 102 % of control; (endpoint: mean survival time, dose: 25.0 mg/kg/injection, schedule: Q01DX009 (ip), vehicle: saline) 102 % of control; (endpoint: mean survival time, dose: 50.0 mg/kg/injection, schedule: Q01DX009 (ip), vehicle: saline) 98 % of control.

Take `Cc1oc([N+](=O)[O-])c(C)c1C(=O)O`: the T/C is, setting by setting: (endpoint: mean survival time, dose: 50.0 mg/kg/injection, schedule: Q04DX002 (ip), vehicle: saline with Tween-80) 101 % of control; under setting [7], 97 % of control; under setting [8], 104 % of control.

Take `C=C1c2cccc(O)c2C(O)=C2C(=O)[C@]3(O)C(O)=C(C(N)=O)C(=O)[C@@H](N(C)C)[C@@H]3[C@@H](O)[C@H]12`: the T/C was 96 % of control (endpoint: median survival time, dose: 12.5 mg/kg/injection, schedule: Q01DX009 (ip), vehicle: Klucel (hydroxypropylcellulose) (HPC)); 104 % of control (endpoint: median survival time, dose: 25.0 mg/kg/injection, schedule: Q01DX009 (ip), vehicle: Klucel (hydroxypropylcellulose) (HPC)); 107 % of control (endpoint: median survival time, dose: 50.0 mg/kg/injection, schedule: Q01DX009 (ip), vehicle: Klucel (hydroxypropylcellulose) (HPC)); 114 % of control (endpoint: median survival time, dose: 100.0 mg/kg/injection, schedule: Q01DX009 (ip), vehicle: Klucel (hydroxypropylcellulose) (HPC)).

Consider `CC(=N\O)/C(C)=N/O.CC(=N\O)/C(C)=N/O.O.[CH3-].[Co]`, for which the T/C runs as follows: (endpoint: mean survival time, dose: 25.0 mg/kg/injection, schedule: Q04DX003 (ip), vehicle: Klucel (hydroxypropylcellulose) (HPC)) 95 % of control; (endpoint: mean survival time, dose: 50.0 mg/kg/injection, schedule: Q04DX003 (ip), vehicle: Klucel (hydroxypropylcellulose) (HPC)) 95 % of control.

Regarding `CC(=O)OCC1OC(Oc2c([N+](=O)[O-])cc([N+](=O)[O-])c3ccccc23)C(OC(C)=O)C(OC(C)=O)C1OC(C)=O` (stereo not given), the T/C is, setting by setting: under setting [7], 96 % of control; under setting [8], 93 % of control; under setting [9], 104 % of control.

Take `CCCC1C(=O)N2C(N(C)C)=Nc3ccc(C)cc3N2C1=O` (stereo not given): the T/C runs as follows: under setting [1], 94 % of control; under setting [2], 96 % of control; under setting [3], 96 % of control.
